In this assay the test system is HBV. Put plainly: HBV-DNA antiviral assay using HepG2.117 cells (intracellular HBV DNA by qPCR). The assay is classed as cell-based, HBV genotype D. To be noted: Hepatitis B virus, HepG2.117, 72 h, HBV DNA inhibition, 3 days incubation, read-out: EC50. The gist of the method:
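Read-outs: cell-lysate HBV DNA copies by qPCR (interpolated from gBlock standard) and parallel cellular ATP luminescence for CC50, both normalised to 2% DMSO controls and fitted by non-linear regression. HepG2.117 Tet-off genotype D HBV cells, induced by doxycycline removal, exposed 3 days to 4-fold serial dilutions.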
(Real-time PCR tracks product formation cycle by cycle.)

One may read the EC50 as the concentration giving half of the maximal effect.

Turning to `O=C(NCc1ccccc1)c1c2n(c(=O)n1-c1ccc(N3CCOC(F)(F)C3)cc1)CCN(C(=O)c1ccc(Br)c(Cl)c1)C2` [Compound 119, N-benzyl-7-(4-bromo-3-chloro-benzoyl)-2-[4-(2,2-difluoromorpholin-4-yl)phenyl]-3-oxo-6,8-dihydro-5H-imidazo[1,5-a]pyrazine-1-carboxamide], the EC50 is 50 to 500 nM.
With `O=C(NCc1ccccc1)c1c2n(c(=O)n1-c1ccc(N3CCOC4(CC4)C3)cc1)CCN(C(=O)c1ccc(Br)c(Cl)c1)C2` [Compound 120, N-benzyl-7-(4-bromo-3-chloro-benzoyl)-2-[4-(4-oxa-7-azaspiro[2.5]octan-7-yl)phenyl]-3-oxo-6,8-dihydro-5H-imidazo[1,5-a]pyrazine-1-carboxamide], the EC50 fell in the range of 50 to 500 nM.
As for `O=C(NCc1ccccc1)c1c2n(c(=O)n1-c1ccc(N3CC4CCC(C3)O4)cc1)CCN(C(=O)c1ccc(Br)c(Cl)c1)C2` [Compound 121, N-benzyl-7-(4-bromo-3-chloro-benzoyl)-2-[4-(8-oxa-3-azabicyclo[3.2.1]octan-3-yl)phenyl]-3-oxo-6,8-dihydro-5H-imidazo[1,5-a]pyrazine-1-carboxamide], the figure is 50 to 500 nM; as for `O=C(NCc1ccccc1)c1c2n(c(=O)n1-c1ccc(N3CCN(CC(F)(F)F)CC3)cc1)CCN(C(=O)c1ccc(Br)c(Cl)c1)C2` [Compound 122, N-benzyl-7-(4-bromo-3-chloro-benzoyl)-3-oxo-2-[4-[4-(2,2,2-trifluoroethyl)piperazin-1-yl]phenyl]-6,8-dihydro-5H-imidazo[1,5-a]pyrazine-1-carboxamide], 50 to 500 nM; as for `Cn1cnc2cc(-n3c(C(=O)NCc4ccccc4)c4n(c3=O)CCN(C(=O)c3ccc(Br)c(Cl)c3)C4)ccc21` [Compound 123, N-benzyl-7-(4-bromo-3-chloro-benzoyl)-2-(1-methylbenzimidazol-5-yl)-3-oxo-6,8-dihydro-5H-imidazo[1,5-a]pyrazine-1-carboxamide], 500 to 5000 nM.
For the compound `Cn1cnc2ccc(-n3c(C(=O)NCc4ccccc4)c4n(c3=O)CCN(C(=O)c3ccc(Br)c(Cl)c3)C4)cc21` [Compound 124, N-benzyl-7-(4-bromo-3-chloro-benzoyl)-2-(3-methylbenzimidazol-5-yl)-3-oxo-6,8-dihydro-5H-imidazo[1,5-a]pyrazine-1-carboxamide], the EC50 was in the range of 500 to 5000 nM.
Turning to `O=C(NCc1ccccc1)c1c2n(c(=O)n1-c1ccc3ocnc3c1)CCN(C(=O)c1ccc(Br)c(Cl)c1)C2` [Compound 126, 2-(1,3-benzoxazol-5-yl)-N-benzyl-7-(4-bromo-3-chloro-benzoyl)-3-oxo-6,8-dihydro-5H-imidazo[1,5-a]pyrazine-1-carboxamide], the EC50 was 500 to 5000 nM.
As for `CNc1nc2cc(-n3c(C(=O)NCc4ccccc4)c4n(c3=O)CCN(C(=O)c3ccc(Br)c(Cl)c3)C4)ccc2o1` [Compound 127, N-benzyl-7-(4-bromo-3-chloro-benzoyl)-2-[2-(methylamino)-1,3-benzoxazol-5-yl]-3-oxo-6,8-dihydro-5H-imidazo[1,5-a]pyrazine-1-carboxamide], the figure is 500 to 5000 nM; as for `O=C(NCc1ccccc1)c1c2n(c(=O)n1-c1ccc3c(ccn3CCO)c1)CCN(C(=O)c1ccc(Br)c(Cl)c1)C2` [Compound 128, N-benzyl-7-(4-bromo-3-chloro-benzoyl)-2-[1-(2-hydroxyethyl)indol-5-yl]-3-oxo-6,8-dihydro-5H-imidazo[1,5-a]pyrazine-1-carboxamide], 50 to 500 nM.
As for `O=C(NCc1ccccc1)c1c2n(c(=O)n1-c1ccc(OC3CC(O)C3)cc1)CCN(C(=O)c1ccc(Br)c(Cl)c1)C2` (stereo not shown) [Compound 129, N-benzyl-7-(4-bromo-3-chloro-benzoyl)-2-[4-(3-hydroxycyclobutoxy)phenyl]-3-oxo-6,8-dihydro-5H-imidazo[1,5-a]pyrazine-1-carboxamide], the figure is 50 to 500 nM.
